According to patent US7547752B2, “Scalp treatment” (Unilever Home & Personal Care USA division of Conopco, Inc., priority 2002, dated 2009):

Test system: scalp itch in panellists with self-perceived dandruff
Experiment: Clinical anti-itch study: CLA lotion or lotion base applied before AD or NAD shampoo wash, investigator-scored itch degree
Assay type: in vivo, human
Details: lotion applied one hour before hair wash, shampoo 3 times a week, weekly assessment, FIG. 1
From the text: The effect of conjugated linoleic acid, used in conjunction with anti-dandruff (AD) and non anti-dandruff (NAD) shampoo, was clinically assessed using the following protocol.
The conjugated linoleic acid is used as a lotion (composition B). The lotion base comprises Tween™ 20, Carbopol™ 980, Sodium Hydroxide, Natrosol™ 250HHR, EDTA-2Na, glydant plus and water (composition A). The use of the lotion is followed by a shampoo wash with an NAD shampoo (composition C) or an AD shampoo (composition D).
A randomised monadic double blind study design was used based on a total of 240 screened panellists, male and female, with self-perceived dandruff. All 240 panellists used a placebo shampoo (composition C) in their normal hair wash routine for 4 successive weeks.
The panellists were divided into four groups (total number of panellists=240):
Group 1: 60 panellists. All panellists wash their hair with NAD shampoo at home 3 times a week and apply CLA lotion one hour prior to washing their hair.
Group 2: 60 panellists. All panellists wash their hair with NAD shampoo at home 3 times a week and apply lotion base (composition A) one hour prior to washing their hair.
Group 3: 60 panellists. All panellists wash their hair with AD shampoo at home 3 times a week and apply CLA lotion one hour prior to washing their hair.
Group 4: 60 panellists. […]

Conjugated linoleic acid [CLA]
degree of itch of the scalp (itch degree, standard scale 0-4): can increase the degree of scalp itch
